Measured values as given in US20230085307A1, “PYRIDAZINONE COMPOUND AND HERBICIDE” (NISSAN CHEMICAL CORPORATION, priority 2019, published 2023).

Experiments:
[1] = test system: barnyard grass; assay: Test Example 3: herbicidal effect by foliage application, Wagner pot (Table 18, symbol H); type: in vivo, barnyard grass (Echinochloa crus-galli); settings: 320 g/ha
In short: (§1)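 Plants were sown in alluvial soil held under 0.1–0.5 cm standing water and grown 14 days in a greenhouse at 25–30 °C. An emulsifiable formulation, water-diluted to the set dose, was then sprayed onto the foliage, and effects were scored three weeks later using previously defined criteria.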

[2] = test system: Chinese sprangletop; assay: Test Example 3: herbicidal effect by foliage application, Wagner pot (Table 18, symbol D); type: in vivo, chinese sprangletop (Leptochloa chinensis); settings: 320 g/ha
In short: as §1

[3] = test system: rice flat sedge; assay: Test Example 3: herbicidal effect by foliage application, Wagner pot (Table 18, symbol E); type: in vivo, rice flat sedge (Cyperus iria); settings: 320 g/ha
In short: as §1

[4] = test system: southern crabgrass; assay: Test Example 4: herbicidal effect by soil treatment (Table 19, symbol F); type: in vivo, southern crabgrass (Digitaria ciliaris); settings: amount of applied herbicide 320 g/ha
In short: (§2)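 Herbicidal effect was rated 3 weeks after treatment, using the scoring criteria of an earlier test. The compound, formulated as an emulsion and diluted in water to a set herbicide amount, had been sprayed uniformly on soil over freshly sown seeds. Growth took place in a greenhouse at 25° C. to 30° C.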

[5] = test system: green foxtail; assay: Test Example 4: herbicidal effect by soil treatment (Table 19, symbol G); type: in vivo, green foxtail (Setaria viridis); settings: amount of applied herbicide 320 g/ha
In short: as §2

[6] = test system: barnyard grass; assay: Test Example 4: herbicidal effect by soil treatment (Table 19, symbol H); type: in vivo, barnyard grass (Echinochloa crus-galli); settings: amount of applied herbicide 320 g/ha
In short: as §2

[7] = test system: wild oat; assay: Test Example 4: herbicidal effect by soil treatment (Table 19, symbol I); type: in vivo, wild oat (Avena fatua); settings: amount of applied herbicide 320 g/ha
In short: as §2

[8] = test system: blackgrass; assay: Test Example 4: herbicidal effect by soil treatment (Table 19, symbol J); type: in vivo, blackgrass (Alopecurus myosuroides); settings: amount of applied herbicide 320 g/ha
In short: as §2

[9] = test system: Italian ryegrass; assay: Test Example 4: herbicidal effect by soil treatment (Table 19, symbol K); type: in vivo, Italian ryegrass (Lolium multiflorum); settings: amount of applied herbicide 320 g/ha
In short: as §2

[10] = test system: windgrass; assay: Test Example 4: herbicidal effect by soil treatment (Table 19, symbol L); type: in vivo, windgrass (Apera spica-venti); settings: amount of applied herbicide 320 g/ha
In short: as §2

[11] = test system: velvetleaf; assay: Test Example 4: herbicidal effect by soil treatment (Table 19, symbol M); type: in vivo, velvetleaf (Abutilon theophrasti); settings: amount of applied herbicide 320 g/ha
In short: as §2

[12] = test system: redroot pigweed; assay: Test Example 4: herbicidal effect by soil treatment (Table 19, symbol N); type: in vivo, redroot pigweed (Amaranthus retroflexus); settings: amount of applied herbicide 320 g/ha
In short: as §2

[13] = test system: lambsquarters; assay: Test Example 4: herbicidal effect by soil treatment (Table 19, symbol O); type: in vivo, lambsquarters (Chenopodium album); settings: amount of applied herbicide 320 g/ha
In short: as §2

[14] = test system: chickweed; assay: Test Example 4: herbicidal effect by soil treatment (Table 19, symbol P); type: in vivo, common chickweed (Stellaria media); settings: amount of applied herbicide 320 g/ha
In short: as §2

[15] = test system: persian speedwell; assay: Test Example 4: herbicidal effect by soil treatment (Table 19, symbol R); type: in vivo, Persian speedwell (Veronica persica); settings: amount of applied herbicide 320 g/ha
In short: as §2

[16] = test system: southern crabgrass; assay: Test Example 5: herbicidal effect by foliage application, plastic box (Table 20, symbol F); type: in vivo, southern crabgrass (Digitaria ciliaris); settings: foliage application, 320 g/ha
In short: (§3)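 Foliar spray test: emulsion formulation diluted in water to a set application rate, sprayed onto 14-day-old plants raised in diluvial soil at 25° C to 30° C under glass. Both herbicidal effect and crop effect rated visually three weeks later.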

[17] = test system: green foxtail; assay: Test Example 5: herbicidal effect by foliage application, plastic box (Table 20, symbol G); type: in vivo, green foxtail (Setaria viridis); settings: foliage application, 320 g/ha
In short: as §3

[18] = test system: barnyard grass; assay: Test Example 5: herbicidal effect by foliage application, plastic box (Table 20, symbol H); type: in vivo, barnyard grass (Echinochloa crus-galli); settings: foliage application, 320 g/ha
In short: as §3

[19] = test system: wild oat; assay: Test Example 5: herbicidal effect by foliage application, plastic box (Table 20, symbol I); type: in vivo, wild oat (Avena fatua); settings: foliage application, 320 g/ha
In short: as §3

[20] = test system: blackgrass; assay: Test Example 5: herbicidal effect by foliage application, plastic box (Table 20, symbol J); type: in vivo, blackgrass (Alopecurus myosuroides); settings: foliage application, 320 g/ha
In short: as §3

[21] = test system: Italian ryegrass; assay: Test Example 5: herbicidal effect by foliage application, plastic box (Table 20, symbol K); type: in vivo, Italian ryegrass (Lolium multiflorum); settings: foliage application, 320 g/ha
In short: as §3

[22] = test system: windgrass; assay: Test Example 5: herbicidal effect by foliage application, plastic box (Table 20, symbol L); type: in vivo, windgrass (Apera spica-venti); settings: foliage application, 320 g/ha
In short: as §3

[23] = test system: velvetleaf; assay: Test Example 5: herbicidal effect by foliage application, plastic box (Table 20, symbol M); type: in vivo, velvetleaf (Abutilon theophrasti); settings: foliage application, 320 g/ha
In short: as §3

[24] = test system: redroot pigweed; assay: Test Example 5: herbicidal effect by foliage application, plastic box (Table 20, symbol N); type: in vivo, redroot pigweed (Amaranthus retroflexus); settings: foliage application, 320 g/ha
In short: as §3

[25] = test system: lambsquarters; assay: Test Example 5: herbicidal effect by foliage application, plastic box (Table 20, symbol O); type: in vivo, lambsquarters (Chenopodium album); settings: foliage application, 320 g/ha
In short: as §3

[26] = test system: chickweed; assay: Test Example 5: herbicidal effect by foliage application, plastic box (Table 20, symbol P); type: in vivo, common chickweed (Stellaria media); settings: foliage application, 320 g/ha
In short: as §3

[27] = test system: false cleavers; assay: Test Example 5: herbicidal effect by foliage application, plastic box (Table 20, symbol Q); type: in vivo, false cleavers (Galium spurium); settings: foliage application, 320 g/ha
In short: as §3

[28] = test system: persian speedwell; assay: Test Example 5: herbicidal effect by foliage application, plastic box (Table 20, symbol R); type: in vivo, Persian speedwell (Veronica persica); settings: foliage application, 320 g/ha
In short: as §3

[29] = evaluated three weeks after application

## CCCC(=O)Oc1c(C)nn(C)c(=O)c1-c1c(-c2ccc(C)c(C)c2)sc2ccccc12 [1-066]
[1]
  herbicidal effect on H (barnyard grass), rating 0-5: 2 (Herbicidal rate of 20% or more and less than 40%)
[2]
  herbicidal effect on D (Chinese sprangletop), rating 0-5: 0 (Herbicidal rate of 5% or less (almost no effect))
[3]
  herbicidal effect on E (rice flat sedge), rating 0-5: 5 (Herbicidal rate of 90% or more (almost completely withered))
[4]
  herbicidal effect rating, F: southern crabgrass: 0 (Herbicidal rate of 5% or less (almost no effect))
[5]
  herbicidal effect rating, G: green foxtail: 0 (Herbicidal rate of 5% or less (almost no effect))
[6]
  herbicidal effect rating, H: barnyard grass: 0 (Herbicidal rate of 5% or less (almost no effect))
[7]
  herbicidal effect rating, I: wild oat: 0 (Herbicidal rate of 5% or less (almost no effect))
[8]
  herbicidal effect rating, J: blackgrass: 0 (Herbicidal rate of 5% or less (almost no effect))
[9]
  herbicidal effect rating, K: Italian ryegrass: 0 (Herbicidal rate of 5% or less (almost no effect))
[10]
  herbicidal effect rating, L: windgrass: 0 (Herbicidal rate of 5% or less (almost no effect))
[11]
  herbicidal effect rating, M: velvetleaf: 0 (Herbicidal rate of 5% or less (almost no effect))
[12]
  herbicidal effect rating, N: redroot pigweed: 0 (Herbicidal rate of 5% or less (almost no effect))
[13]
  herbicidal effect rating, O: lambsquarters: 0 (Herbicidal rate of 5% or less (almost no effect))
[14]
  herbicidal effect rating, P: chickweed: 2 (Herbicidal rate of 20% or more and less than 40%)
[15]
  herbicidal effect rating, R: persian speedwell: 4 (Herbicidal rate of 70% or more and less than 90%)
[16]; three weeks after application
  herbicidal effect grade, F: southern crabgrass: 2 (Herbicidal rate of 20% or more and less than 40%)
[17]; three weeks after application
  herbicidal effect grade, G: green foxtail: 3 (Herbicidal rate of 40% or more and less than 70%)
[18]; three weeks after application
  herbicidal effect grade, H: barnyard grass: 2 (Herbicidal rate of 20% or more and less than 40%)
[19]; three weeks after application
  herbicidal effect grade, I: wild oat: 1 (Herbicidal rate of 5% or more and less than 20%)
[20]; three weeks after application
  herbicidal effect grade, J: blackgrass: 0 (Herbicidal rate of 5% or less (almost no effect))
[21]; three weeks after application
  herbicidal effect grade, K: Italian ryegrass: 0 (Herbicidal rate of 5% or less (almost no effect))
[22]; three weeks after application
  herbicidal effect grade, L: windgrass: 0 (Herbicidal rate of 5% or less (almost no effect))
[23]; three weeks after application
  herbicidal effect grade, M: velvetleaf: 4 (Herbicidal rate of 70% or more and less than 90%)
[24]; three weeks after application
  herbicidal effect grade, N: redroot pigweed: 4 (Herbicidal rate of 70% or more and less than 90%)
[25]; three weeks after application
  herbicidal effect grade, O: lambsquarters: 0 (Herbicidal rate of 5% or less (almost no effect))
[26]; three weeks after application
  herbicidal effect grade, P: chickweed: 5 (Herbicidal rate of 90% or more (almost completely withered))
[27]; three weeks after application
  herbicidal effect grade, Q: false cleavers: 2 (Herbicidal rate of 20% or more and less than 40%)
[28]; three weeks after application
  herbicidal effect grade, R: persian speedwell: 5 (Herbicidal rate of 90% or more (almost completely withered))

## COc1ccc(-c2sc3ccc(Cl)cc3c2-c2c(O)c(C)nn(C)c2=O)cc1 [2-103]
[1]
  herbicidal effect on H (barnyard grass), rating 0-5: 3 (Herbicidal rate of 40% or more and less than 70%)
[2]
  herbicidal effect on D (Chinese sprangletop), rating 0-5: 2 (Herbicidal rate of 20% or more and less than 40%)
[3]
  herbicidal effect on E (rice flat sedge), rating 0-5: 5 (Herbicidal rate of 90% or more (almost completely withered))
[4]
  F: southern crabgrass, herbicidal effect rating: 0 (Herbicidal rate of 5% or less (almost no effect))
[5]
  G: green foxtail, herbicidal effect rating: 0 (Herbicidal rate of 5% or less (almost no effect))
[6]
  H: barnyard grass, herbicidal effect rating: 0 (Herbicidal rate of 5% or less (almost no effect))
[7]
  I: wild oat, herbicidal effect rating: 0 (Herbicidal rate of 5% or less (almost no effect))
[8]
  J: blackgrass, herbicidal effect rating: 0 (Herbicidal rate of 5% or less (almost no effect))
[9]
  K: Italian ryegrass, herbicidal effect rating: 0 (Herbicidal rate of 5% or less (almost no effect))
[10]
  L: windgrass, herbicidal effect rating: 0 (Herbicidal rate of 5% or less (almost no effect))
[11]
  M: velvetleaf, herbicidal effect rating: 3 (Herbicidal rate of 40% or more and less than 70%)
[12]
  N: redroot pigweed, herbicidal effect rating: 4 (Herbicidal rate of 70% or more and less than 90%)
[13]
  O: lambsquarters, herbicidal effect rating: 4 (Herbicidal rate of 70% or more and less than 90%)
[14]
  P: chickweed, herbicidal effect rating: 4 (Herbicidal rate of 70% or more and less than 90%)
[15]
  R: persian speedwell, herbicidal effect rating: 5 (Herbicidal rate of 90% or more (almost completely withered))
[16]; [29]
  herbicidal effect on F: southern crabgrass: 0 (Herbicidal rate of 5% or less (almost no effect))
[17]; [29]
  herbicidal effect on G: green foxtail: 0 (Herbicidal rate of 5% or less (almost no effect))
[18]; [29]
  herbicidal effect on H: barnyard grass: 0 (Herbicidal rate of 5% or less (almost no effect))
[19]; [29]
  herbicidal effect on I: wild oat: 0 (Herbicidal rate of 5% or less (almost no effect))
[20]; [29]
  herbicidal effect on J: blackgrass: 1 (Herbicidal rate of 5% or more and less than 20%)
[21]; [29]
  herbicidal effect on K: Italian ryegrass: 0 (Herbicidal rate of 5% or less (almost no effect))
[22]; [29]
  herbicidal effect on L: windgrass: 5 (Herbicidal rate of 90% or more (almost completely withered))
[23]; [29]
  herbicidal effect on M: velvetleaf: 4 (Herbicidal rate of 70% or more and less than 90%)
[24]; [29]
  herbicidal effect on N: redroot pigweed: 3 (Herbicidal rate of 40% or more and less than 70%)
[25]; [29]
  herbicidal effect on O: lambsquarters: 4 (Herbicidal rate of 70% or more and less than 90%)
[26]; [29]
  herbicidal effect on P: chickweed: 5 (Herbicidal rate of 90% or more (almost completely withered))
[27]; [29]
  herbicidal effect on Q: false cleavers: 3 (Herbicidal rate of 40% or more and less than 70%)
[28]; [29]
  herbicidal effect on R: persian speedwell: 5 (Herbicidal rate of 90% or more (almost completely withered))
